Laboratory results reported in patent US20040156869A1, “2-substituted quinazolin-4-ylamine analogues” (Neurogen Corporation, priority 2002, published 2004).

Each compound was assayed against human capsaicin receptor (VR1) (Homo sapiens, UniProt Q8NER1) (assay: Capsaicin receptor binding assay ([3H]RTX competition, VR1-transfected HEK293 membranes)). Conditions: not given.
Chain of human capsaicin receptor (VR1) (Q8NER1 whole entry): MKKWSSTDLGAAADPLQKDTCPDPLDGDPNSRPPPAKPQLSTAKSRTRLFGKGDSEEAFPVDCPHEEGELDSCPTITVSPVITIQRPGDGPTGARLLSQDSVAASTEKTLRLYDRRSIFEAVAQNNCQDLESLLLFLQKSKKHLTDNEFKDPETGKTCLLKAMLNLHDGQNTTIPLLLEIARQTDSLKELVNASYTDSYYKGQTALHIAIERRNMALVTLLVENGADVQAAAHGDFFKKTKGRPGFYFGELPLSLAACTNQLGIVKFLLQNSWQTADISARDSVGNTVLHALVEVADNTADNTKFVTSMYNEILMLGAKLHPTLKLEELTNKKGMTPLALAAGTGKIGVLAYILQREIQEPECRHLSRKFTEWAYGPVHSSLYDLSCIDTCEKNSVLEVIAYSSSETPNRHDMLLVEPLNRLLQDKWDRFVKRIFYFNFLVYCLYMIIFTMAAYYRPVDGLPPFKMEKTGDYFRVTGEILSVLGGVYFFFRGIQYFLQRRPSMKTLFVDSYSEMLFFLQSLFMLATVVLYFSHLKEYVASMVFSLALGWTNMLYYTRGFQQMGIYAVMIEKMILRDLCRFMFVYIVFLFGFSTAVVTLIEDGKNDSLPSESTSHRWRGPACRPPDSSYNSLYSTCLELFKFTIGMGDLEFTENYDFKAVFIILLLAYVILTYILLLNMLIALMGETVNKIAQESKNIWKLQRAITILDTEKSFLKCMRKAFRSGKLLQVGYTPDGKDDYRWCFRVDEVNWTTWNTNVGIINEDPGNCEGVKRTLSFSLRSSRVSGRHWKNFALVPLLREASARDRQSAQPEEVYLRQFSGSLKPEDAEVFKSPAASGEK

Ki, < 1 µM:
Cc1cccnc1-c1ccc2c(Nc3ccc(C(F)(F)F)cc3)nc(CN3CC[C@H](CO)C3)nc2c1 [Compound 734, (S)-{1-[7-(3-Methyl-pyridin-2-yl)-4-(4-trifluoromethyl-phenylamino)-quinazolin-2-ylmethyl]-pyrrolidin-3-yl}-methanol]
Cc1cccnc1-c1ccc2c(Nc3ccc(C(F)(F)F)cc3)nc(C3CNC3)nc2n1 [Compound 735, [2-Azetidin-3-yl-7-(3-methyl-pyridin-2-yl)-pyrido[2,3-d]pyrimidin-4-yl]-(4-trifluoromethyl-phenyl)-amine]
O=C(O)C1CCCCN1Cc1nc(Nc2ccc(C(F)(F)F)cc2)c2ccc(-c3ncccc3C(F)(F)F)cc2n1 (stereo not shown) [Compound 737, 1-[4-(4-Trifluoromethyl-phenylamino)-7-(3-trifluoromethyl-pyridin-2-yl)-quinazolin-2-ylmethyl]-piperidine-2-carboxylic acid]
Cc1cccnc1-c1ccc2c(Nc3ccc(C(F)(F)F)cc3)nc(CN3C[C@@H](C)O[C@@H](C)C3)nc2n1 [Compound 738, [2-(2,6-Dimethyl-morpholin-4-ylmethyl)-7-(3-methyl-pyridin-2-yl)-pyrido[2,3-d]pyrimidin-4-yl]-(4-trifluoromethyl-phenyl)-amine (cis)]
CC1(C)CN(Cc2nc(Nc3ccc(C(F)(F)F)cc3)c3ccc(-c4ncccc4C(F)(F)F)cc3n2)CCO1 [Compound 739, [2-(2,2-Dimethyl-morpholin-4-ylmethyl)-7-(3-trifluoromethyl-pyridin-2-yl)-quinazolin-4-yl]-(4-trifluoromethyl-phenyl)-amine]
CC1(C)CN(Cc2nc(Nc3ccc(C(F)(F)F)cc3)c3ccc(-c4ncccc4Cl)cc3n2)CCO1 [Compound 740, [7-(3-Chloro-pyridin-2-yl)-2-(2,2-dimethyl-morpholin-4-ylmethyl)-quinazolin-4-yl]-(4-trifluoromethyl-phenyl)-amine]
CC1(C)CN(Cc2nc(Nc3ccc(C4CC4)cc3)c3ccc(-c4ncccc4C(F)(F)F)cc3n2)CCO1 [Compound 741, (4-Cyclopropyl-phenyl)-[2-(2,2-dimethyl-morpholin-4-ylmethyl)-7-(3-trifluoromethyl-pyridin-2-yl)-quinazolin-4-yl]-amine]
CC1(C)CN(Cc2nc(Nc3ccc(C(F)(F)F)cc3)c3ncc(-c4ncccc4C(F)(F)F)cc3n2)CCO1 [Compound 742, [2-(2,2-Dimethyl-morpholin-4-ylmethyl)-7-(3-trifluoromethyl-pyridin-2-yl)-pyrido[3,2-d]pyrimidin-4-yl]-(4-trifluoromethyl-phenyl)-amine]
COCCN(CCOC)Cc1nc(Nc2ccc(C(F)(F)F)cc2)c2ccc(-c3ncccc3C)nc2n1 [Compound 743, [2-{[Bis-(2-methoxy-ethyl)-amino]-methyl}-7-(3-methyl-pyridin-2-yl)-pyrido[2,3-d]pyrimidin-4-yl]-(4-trifluoromethyl-phenyl)-amine]
CC(C)(C)c1ccc(Nc2nc(CN3CCC[C@H]3C(=O)O)nc3cc(-c4ncccc4C(F)(F)F)ccc23)cc1 [Compound 744, (S)-1-[4-(4-tert-Butyl-phenylamino)-7-(3-trifluoromethyl-pyridin-2-yl)-quinazolin-2-ylmethyl]-pyrrolidine-2-carboxylic acid]
CC(C)(C)c1ccc(Nc2nc(CN3CCC[C@@H]3C(=O)O)nc3cc(-c4ncccc4C(F)(F)F)ccc23)cc1 [Compound 745, (R)-1-[4-(4-tert-Butyl-phenylamino)-7-(3-trifluoromethyl-pyridin-2-yl)-quinazolin-2-ylmethyl]-pyrrolidine-2-carboxylic acid]
Cc1cccnc1-c1ccc2c(Nc3ccc(C(F)(F)F)cc3)nc(CN3CCCC(C)(C)C3)nc2n1 [Compound 746, [2-(3,3-Dimethyl-piperidin-1-ylmethyl)-7-(3-methyl-pyridin-2-yl)-pyrido[2,3-d]pyrimidin-4-yl]-(4-trifluoromethyl-phenyl)-amine]
Cc1cccnc1-c1ccc2c(Nc3ccc(C(F)(F)F)cc3)nc(CN3CCC[C@H]3C(=O)O)nc2n1 [Compound 747, (S)-1-[7-(3-Methyl-pyridin-2-yl)-4-(4-trifluoromethyl-phenylamino)-pyrido[2,3-d]pyrimidin-2-ylmethyl]-pyrrolidine-2-carboxylic acid]
C[C@@H]1CN(Cc2nc(Nc3ccc(C(F)(F)F)cc3)c3ccc(-c4ncccc4C(F)(F)F)nc3n2)C[C@H](C)O1 [Compound 748, [2-(2,6-Dimethyl-morpholin-4-ylmethyl)-7-(3-trifluoromethyl-pyridin-2-yl)-pyrido[2,3-d]pyrimidin-4-yl]-(4-trifluoromethyl-phenyl)-amine (cis)]
COCCN(CCOC)Cc1nc(Nc2ccc(C(F)(F)F)cc2)c2ccc(-c3ncccc3C(F)(F)F)nc2n1 [Compound 749, [2-{[Bis-(2-methoxy-ethyl)-amino]-methyl}-7-(3-trifluoromethyl-pyridin-2-yl)-pyrido[2,3-d]pyrimidin-4-yl]-(4-trifluoromethyl-phenyl)-amine]
CC1(C)CCCN(Cc2nc(Nc3ccc(C(F)(F)F)cc3)c3ccc(-c4ncccc4C(F)(F)F)nc3n2)C1 [Compound 750, [2-(3,3-Dimethyl-piperidin-1-ylmethyl)-7-(3-trifluoromethyl-pyridin-2-yl)-pyrido[2,3-d]pyrimidin-4-yl]-(4-trifluoromethyl-phenyl)-amine]
O=C(O)[C@@H]1CCCN1Cc1nc(Nc2ccc(C(F)(F)F)cc2)c2ccc(-c3ncccc3C(F)(F)F)nc2n1 [Compound 751, (S)-1-[4-(4-Trifluoromethyl-phenylamino)-7-(3-trifluoromethyl-pyridin-2-yl)-pyrido[2,3-d]pyrimidin-2-ylmethyl]-pyrrolidine-2-carboxylic acid]
CC(C)(C)c1ccc(Nc2nc(CN3CCC[C@H]3C(=O)O)nc3cc(-c4ncccc4C(F)(F)F)cnc23)cc1 [Compound 752, (S)-1-[4-(4-tert-Butyl-phenylamino)-7-(3-trifluoromethyl-pyridin-2-yl)-pyrido[3,2-d]pyrimidin-2-ylmethyl]-pyrrolidine-2-carboxylic acid]
CCCN(CCO)Cc1nc(Nc2ccc(C(C)(C)C)cc2)c2ccc(-c3ncccc3C(F)(F)F)cc2n1 [Compound 754, 2-{[4-(4-tert-Butyl-phenylamino)-7-(3-trifluoromethyl-pyridin-2-yl)-quinazolin-2-ylmethyl]-propyl-amino}-ethanol]
CC(C)(C)c1ccc(Nc2nc(CN3CCCC3CO)nc3cc(-c4ncccc4C(F)(F)F)ccc23)cc1 (stereo not shown) [Compound 755, {1-[4-(4-tert-Butyl-phenylamino)-7-(3-trifluoromethyl-pyridin-2-yl)-quinazolin-2-ylmethyl]-pyrrolidin-2-yl}-methanol]
O=S1(=O)CCCCN1Cc1nc(Nc2ccc(C(F)(F)F)cc2)c2ccc(-c3ncccc3C(F)(F)F)cc2n1 [Compound 756, [2-(1,1-Dioxo-1λ^6-[1,2]thiazinan-2-ylmethyl)-7-(3-trifluoromethyl-pyridin-2-yl)-quinazolin-4-yl]-(4-trifluorornethyl-phenyl)-amine]
C[C@@H]1CN(Cc2nc(Nc3ccc(C(C)(C)C)cc3)c3ccc(-c4ncccc4C(F)(F)F)nc3n2)C[C@H](C)O1 [Compound 757, (4-tert-Butyl-phenyl)-[2-(2,6-dimethyl-morpholin-4-ylmethyl)-7-(3-trifluoromethyl-pyridin-2-yl)-pyrido[2,3-d]pyrimidin-4-yl]-amine (cis)]
CC(C)(C)c1ccc(Nc2nc(CN3CCC[C@H]3C(=O)O)nc3nc(-c4ncccc4C(F)(F)F)ccc23)cc1 [Compound 758, (S)-1-[4-(4-tert-Butyl-phenylamino)-7-(3-trifluoromethyl-pyridin-2-yl)-pyrido[2,3-d]pyrimidin-2-ylmethyl]-pyrrolidine-2-carboxylic acid]
O=C(c1nc(Nc2ccc(C(F)(F)F)cc2)c2ccc(-c3ncccc3C(F)(F)F)cc2n1)N1CCCCC1 [Compound 759, Piperidin-1-yl-[4-(4-trifluoromethyl-phenylamino)-7-(3-trifluoromethyl-pyridin-2-yl)-quinazolin-2-yl]I-methanone]
CC(C)CCNC(=O)c1nc(Nc2ccc(C(F)(F)F)cc2)c2ccc(-c3ncccc3C(F)(F)F)cc2n1 [Compound 761, 4-(4-Trifluoromethyl-phenylamino)-7-(3-trifluoromethyl-pyridin-2-yl)-quinazoline-2-carboxylic acid (3-methyl-butyl)-amide]
COCCNC(=O)c1nc(Nc2ccc(C(F)(F)F)cc2)c2ccc(-c3ncccc3C(F)(F)F)cc2n1 [Compound 762, 4-(4-Trifluoromethyl-phenylamino)-7-(3-trifluoromethyl-pyridin-2-yl)-quinazoline-2-carboxylic acid (2-methoxy-ethyl)-amide]
O=C(NCCN1CCCC1)c1nc(Nc2ccc(C(F)(F)F)cc2)c2ccc(-c3ncccc3C(F)(F)F)cc2n1 [Compound 763, 4-(4-Trifluoromethyl-phenylamino)-7-(3-trifluoromethyl-pyridin-2-yl)-quinazoline-2-carboxylic acid (2-pyrrolidin-1-yl-ethyl)-amide]

Same assay, conditions: Table III; * = Ki 1 micromolar or less

Ki, < 1 µM:
CCOC(=O)C1CCN(CCc2nc(Nc3ccc(C(F)(F)F)cc3)c3ccc(-c4ncccc4C(F)(F)F)cc3n2)CC1 [Compound 736, 1-{2-[4-(4-Trifluoromethyl-phenylamino)-7-(3-trifluoromethyl-pyridin-2-yl)-quinazolin-2-yl]-ethyl}-piperidine-4-carboxylic acid ethyl ester]
